In ChEMBL document CHEMBL1145498, “A systematic interaction map of validated kinase inhibitors with Ser/Thr kinases” (Proc Natl Acad Sci U S A, 2007):

Key:
[1] = biological target: Serine/threonine-protein kinase 10 (Homo sapiens) (UniProt O94804)
[2] = biological target: Serine/threonine-protein kinase pim-3 (Homo sapiens) (UniProt Q86V86)
[3] = biological target: Calcium/calmodulin-dependent protein kinase type II subunit gamma (Homo sapiens) (UniProt Q13555)
[4] = biological target: Serine/threonine-protein kinase 26 (Homo sapiens) (UniProt Q9P289)
Sequence of Serine/threonine-protein kinase 26 (Homo sapiens) (Q9P289 2-416 limits assumed): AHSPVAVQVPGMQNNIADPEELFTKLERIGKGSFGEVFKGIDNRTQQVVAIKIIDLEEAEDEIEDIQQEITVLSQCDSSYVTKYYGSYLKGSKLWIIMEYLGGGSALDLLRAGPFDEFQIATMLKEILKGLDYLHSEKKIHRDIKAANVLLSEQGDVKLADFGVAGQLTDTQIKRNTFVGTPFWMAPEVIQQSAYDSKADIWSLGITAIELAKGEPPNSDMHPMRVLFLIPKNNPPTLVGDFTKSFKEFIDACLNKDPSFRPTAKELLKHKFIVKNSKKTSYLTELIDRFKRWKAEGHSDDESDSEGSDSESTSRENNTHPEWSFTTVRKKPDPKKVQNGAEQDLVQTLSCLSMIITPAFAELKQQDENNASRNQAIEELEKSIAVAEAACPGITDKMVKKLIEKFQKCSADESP

[5] = biological target: Dual specificity protein kinase CLK1 (Homo sapiens) (UniProt P49759)
[6] = biological target: Serine/threonine-protein kinase 16 (Homo sapiens) (UniProt O75716)
[7] = biological target: Cyclin-dependent kinase 6 (Homo sapiens) (UniProt Q00534)
Sequence of Cyclin-dependent kinase 6 (Homo sapiens) (Q00534 whole entry): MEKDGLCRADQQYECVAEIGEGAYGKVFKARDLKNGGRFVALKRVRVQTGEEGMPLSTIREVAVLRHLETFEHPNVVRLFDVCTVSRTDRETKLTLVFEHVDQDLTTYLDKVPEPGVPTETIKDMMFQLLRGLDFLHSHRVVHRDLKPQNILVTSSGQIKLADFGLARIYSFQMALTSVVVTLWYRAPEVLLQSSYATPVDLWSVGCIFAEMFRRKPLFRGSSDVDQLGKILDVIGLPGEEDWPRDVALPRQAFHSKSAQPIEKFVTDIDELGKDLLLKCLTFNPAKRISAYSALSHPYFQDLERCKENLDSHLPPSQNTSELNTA

[8] = biological target: T1, Lymphokine-activated killer T-cell-originated protein kinase (Homo sapiens) (UniProt Q96KB5)
T1 sequence (whole entry): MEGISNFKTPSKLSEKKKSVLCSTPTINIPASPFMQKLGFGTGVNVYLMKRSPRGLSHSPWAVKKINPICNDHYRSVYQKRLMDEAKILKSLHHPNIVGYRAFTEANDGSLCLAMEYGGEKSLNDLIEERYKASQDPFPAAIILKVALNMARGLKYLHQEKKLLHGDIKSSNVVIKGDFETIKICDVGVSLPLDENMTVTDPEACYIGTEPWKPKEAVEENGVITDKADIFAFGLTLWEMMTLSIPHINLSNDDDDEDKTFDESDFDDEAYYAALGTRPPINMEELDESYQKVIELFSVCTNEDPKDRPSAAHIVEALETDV

[9] = biological target: T2, Serine/threonine-protein kinase Nek2 (Homo sapiens) (UniProt P51955)
T2 sequence (whole entry): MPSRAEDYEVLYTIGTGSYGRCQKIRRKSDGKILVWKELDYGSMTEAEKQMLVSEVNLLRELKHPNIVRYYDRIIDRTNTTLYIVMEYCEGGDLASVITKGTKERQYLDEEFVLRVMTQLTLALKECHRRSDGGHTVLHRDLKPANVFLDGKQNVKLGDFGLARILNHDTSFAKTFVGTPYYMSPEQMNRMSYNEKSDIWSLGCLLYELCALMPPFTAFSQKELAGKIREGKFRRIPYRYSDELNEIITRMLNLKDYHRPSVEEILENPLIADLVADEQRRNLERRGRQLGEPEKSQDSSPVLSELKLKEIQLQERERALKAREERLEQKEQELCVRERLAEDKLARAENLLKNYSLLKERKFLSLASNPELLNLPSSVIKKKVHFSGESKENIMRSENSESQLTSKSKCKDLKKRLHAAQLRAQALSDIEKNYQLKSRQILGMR

[10] = biological target: STE20-like serine/threonine-protein kinase (Homo sapiens) (UniProt Q9H2G2)
[11] = biological target: Ribosomal protein S6 kinase alpha-3 (Homo sapiens) (UniProt P51812)
Sequence of Ribosomal protein S6 kinase alpha-3 (Homo sapiens) (P51812 whole entry): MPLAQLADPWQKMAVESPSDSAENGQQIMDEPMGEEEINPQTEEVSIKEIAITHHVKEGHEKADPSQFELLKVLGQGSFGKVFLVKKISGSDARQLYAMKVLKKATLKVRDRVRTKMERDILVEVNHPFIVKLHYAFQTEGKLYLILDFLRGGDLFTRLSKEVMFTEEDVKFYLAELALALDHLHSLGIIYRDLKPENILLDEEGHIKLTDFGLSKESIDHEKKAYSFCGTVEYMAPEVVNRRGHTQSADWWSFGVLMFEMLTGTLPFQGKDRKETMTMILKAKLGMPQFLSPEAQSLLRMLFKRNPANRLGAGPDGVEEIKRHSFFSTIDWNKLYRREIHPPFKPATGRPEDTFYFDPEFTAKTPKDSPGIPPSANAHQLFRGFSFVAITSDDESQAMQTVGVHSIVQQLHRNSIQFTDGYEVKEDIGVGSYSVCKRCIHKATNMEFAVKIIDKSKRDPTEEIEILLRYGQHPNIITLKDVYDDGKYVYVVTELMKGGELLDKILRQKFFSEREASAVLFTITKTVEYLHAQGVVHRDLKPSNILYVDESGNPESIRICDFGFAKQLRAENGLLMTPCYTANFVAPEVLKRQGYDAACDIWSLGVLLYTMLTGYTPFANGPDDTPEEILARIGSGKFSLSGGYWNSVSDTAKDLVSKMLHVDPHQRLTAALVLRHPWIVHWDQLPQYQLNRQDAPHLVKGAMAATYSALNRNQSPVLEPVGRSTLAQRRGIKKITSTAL

[12] = biological target: Calcium/calmodulin-dependent protein kinase type II subunit alpha (Homo sapiens) (UniProt Q9UQM7)
[13] = biological target: Serine/threonine-protein kinase Nek6 (Homo sapiens) (UniProt Q9HC98)
[14] = biological target: T3, 3-phosphoinositide-dependent protein kinase 1 (Homo sapiens) (UniProt O15530)
T3 sequence (whole entry): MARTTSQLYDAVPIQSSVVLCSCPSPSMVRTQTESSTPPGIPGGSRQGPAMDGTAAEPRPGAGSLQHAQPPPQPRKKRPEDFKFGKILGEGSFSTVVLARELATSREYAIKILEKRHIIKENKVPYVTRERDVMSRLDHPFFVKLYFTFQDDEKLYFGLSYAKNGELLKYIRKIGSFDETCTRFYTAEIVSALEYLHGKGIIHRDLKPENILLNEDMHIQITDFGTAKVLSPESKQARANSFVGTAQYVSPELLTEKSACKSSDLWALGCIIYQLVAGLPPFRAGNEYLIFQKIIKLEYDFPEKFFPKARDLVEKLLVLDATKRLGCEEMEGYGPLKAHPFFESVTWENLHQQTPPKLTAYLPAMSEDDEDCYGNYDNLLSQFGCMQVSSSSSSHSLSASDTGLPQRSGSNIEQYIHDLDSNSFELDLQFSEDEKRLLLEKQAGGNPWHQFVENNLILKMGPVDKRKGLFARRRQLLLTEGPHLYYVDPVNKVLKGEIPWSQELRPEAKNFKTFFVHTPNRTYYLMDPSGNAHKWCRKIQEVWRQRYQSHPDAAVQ

[15] = biological target: Serine/threonine-protein kinase 25 (Homo sapiens) (UniProt O00506)
[16] = biological target: Serine/threonine-protein kinase PAK 6 (Homo sapiens) (UniProt Q9NQU5)
Sequence of Serine/threonine-protein kinase PAK 6 (Homo sapiens) (Q9NQU5 whole entry, looked up): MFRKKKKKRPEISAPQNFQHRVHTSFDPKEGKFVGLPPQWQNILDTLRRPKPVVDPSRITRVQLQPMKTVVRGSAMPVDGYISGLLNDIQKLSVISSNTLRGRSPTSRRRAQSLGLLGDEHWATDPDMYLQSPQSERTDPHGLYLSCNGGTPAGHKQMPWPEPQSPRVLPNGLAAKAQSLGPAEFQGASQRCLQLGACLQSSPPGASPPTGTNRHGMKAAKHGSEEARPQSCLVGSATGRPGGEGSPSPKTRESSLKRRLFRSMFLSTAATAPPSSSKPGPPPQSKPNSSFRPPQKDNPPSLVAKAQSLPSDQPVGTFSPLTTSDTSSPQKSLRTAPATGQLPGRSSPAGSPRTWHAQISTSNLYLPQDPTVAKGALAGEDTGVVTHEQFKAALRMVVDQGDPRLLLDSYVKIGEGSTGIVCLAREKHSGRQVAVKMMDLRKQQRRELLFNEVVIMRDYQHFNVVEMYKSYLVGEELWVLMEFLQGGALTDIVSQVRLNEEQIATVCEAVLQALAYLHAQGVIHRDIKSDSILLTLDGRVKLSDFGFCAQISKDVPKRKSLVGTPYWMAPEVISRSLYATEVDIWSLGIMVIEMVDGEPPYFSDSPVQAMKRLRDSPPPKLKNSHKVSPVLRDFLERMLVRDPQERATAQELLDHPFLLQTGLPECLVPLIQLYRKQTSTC

[17] = biological target: T4, Calcium/calmodulin-dependent protein kinase type IV (Homo sapiens) (UniProt Q16566)
T4 sequence (whole entry): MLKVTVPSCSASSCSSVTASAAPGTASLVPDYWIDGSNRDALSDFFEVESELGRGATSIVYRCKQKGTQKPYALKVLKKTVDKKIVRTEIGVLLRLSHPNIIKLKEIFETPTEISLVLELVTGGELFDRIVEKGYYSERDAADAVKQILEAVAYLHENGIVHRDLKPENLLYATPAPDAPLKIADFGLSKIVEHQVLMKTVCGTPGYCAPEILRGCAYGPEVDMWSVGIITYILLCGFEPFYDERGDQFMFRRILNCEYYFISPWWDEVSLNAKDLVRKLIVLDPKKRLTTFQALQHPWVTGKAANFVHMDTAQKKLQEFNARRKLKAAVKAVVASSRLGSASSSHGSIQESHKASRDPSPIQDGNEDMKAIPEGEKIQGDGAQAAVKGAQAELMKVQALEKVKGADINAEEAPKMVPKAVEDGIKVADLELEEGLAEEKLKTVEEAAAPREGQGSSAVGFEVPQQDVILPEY

[18] = biological target: Tyrosine-protein kinase JAK1 (Homo sapiens) (UniProt P23458)
Sequence of Tyrosine-protein kinase JAK1 (Homo sapiens) (P23458 whole entry): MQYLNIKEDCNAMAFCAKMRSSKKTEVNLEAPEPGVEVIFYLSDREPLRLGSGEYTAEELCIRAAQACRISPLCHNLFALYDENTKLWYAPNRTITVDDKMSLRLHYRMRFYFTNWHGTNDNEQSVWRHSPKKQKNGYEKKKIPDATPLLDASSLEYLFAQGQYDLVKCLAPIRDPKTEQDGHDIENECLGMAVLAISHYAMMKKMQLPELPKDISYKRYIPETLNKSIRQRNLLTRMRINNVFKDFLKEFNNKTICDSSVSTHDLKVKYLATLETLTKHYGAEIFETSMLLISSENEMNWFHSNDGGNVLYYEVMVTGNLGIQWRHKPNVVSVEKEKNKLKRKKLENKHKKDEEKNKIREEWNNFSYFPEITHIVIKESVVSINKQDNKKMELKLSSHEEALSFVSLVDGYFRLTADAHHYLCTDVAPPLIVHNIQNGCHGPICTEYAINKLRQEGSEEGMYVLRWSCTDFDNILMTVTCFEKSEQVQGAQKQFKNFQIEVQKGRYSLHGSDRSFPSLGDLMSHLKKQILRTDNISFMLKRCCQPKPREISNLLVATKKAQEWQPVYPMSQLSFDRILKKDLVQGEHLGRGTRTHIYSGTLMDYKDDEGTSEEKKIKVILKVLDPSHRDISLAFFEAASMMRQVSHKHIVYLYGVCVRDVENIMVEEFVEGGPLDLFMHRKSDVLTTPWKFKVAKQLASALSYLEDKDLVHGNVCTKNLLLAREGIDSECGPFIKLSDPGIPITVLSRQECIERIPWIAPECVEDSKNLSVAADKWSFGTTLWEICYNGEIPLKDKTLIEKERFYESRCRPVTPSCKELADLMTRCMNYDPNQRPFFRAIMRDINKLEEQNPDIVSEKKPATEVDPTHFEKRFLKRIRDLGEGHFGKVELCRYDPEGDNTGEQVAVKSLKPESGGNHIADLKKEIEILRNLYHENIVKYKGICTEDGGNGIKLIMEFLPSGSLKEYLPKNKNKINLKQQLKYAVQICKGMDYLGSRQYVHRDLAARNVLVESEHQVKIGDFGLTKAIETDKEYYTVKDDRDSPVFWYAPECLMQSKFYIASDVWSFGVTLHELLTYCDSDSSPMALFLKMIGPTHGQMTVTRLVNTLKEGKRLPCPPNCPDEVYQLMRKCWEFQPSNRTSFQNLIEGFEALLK

Sequence of Calcium/calmodulin-dependent protein kinase type II subunit gamma (Homo sapiens) (Q13555 whole entry): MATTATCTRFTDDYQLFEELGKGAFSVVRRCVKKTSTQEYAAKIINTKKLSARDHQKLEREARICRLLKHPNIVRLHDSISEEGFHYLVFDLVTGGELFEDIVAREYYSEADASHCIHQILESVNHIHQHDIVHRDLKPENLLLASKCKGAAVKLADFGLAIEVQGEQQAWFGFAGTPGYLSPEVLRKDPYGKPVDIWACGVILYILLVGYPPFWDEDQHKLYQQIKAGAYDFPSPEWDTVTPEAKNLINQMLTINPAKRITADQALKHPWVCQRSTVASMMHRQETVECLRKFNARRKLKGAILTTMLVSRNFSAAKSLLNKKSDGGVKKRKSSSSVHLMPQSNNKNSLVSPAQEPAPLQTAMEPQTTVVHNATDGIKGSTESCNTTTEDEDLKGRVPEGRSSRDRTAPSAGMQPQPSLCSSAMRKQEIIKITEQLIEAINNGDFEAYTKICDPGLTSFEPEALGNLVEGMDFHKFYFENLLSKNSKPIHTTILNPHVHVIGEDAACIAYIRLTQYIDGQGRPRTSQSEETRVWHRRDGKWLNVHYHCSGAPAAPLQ
Sequence of Serine/threonine-protein kinase 10 (Homo sapiens) (O94804 whole entry, looked up): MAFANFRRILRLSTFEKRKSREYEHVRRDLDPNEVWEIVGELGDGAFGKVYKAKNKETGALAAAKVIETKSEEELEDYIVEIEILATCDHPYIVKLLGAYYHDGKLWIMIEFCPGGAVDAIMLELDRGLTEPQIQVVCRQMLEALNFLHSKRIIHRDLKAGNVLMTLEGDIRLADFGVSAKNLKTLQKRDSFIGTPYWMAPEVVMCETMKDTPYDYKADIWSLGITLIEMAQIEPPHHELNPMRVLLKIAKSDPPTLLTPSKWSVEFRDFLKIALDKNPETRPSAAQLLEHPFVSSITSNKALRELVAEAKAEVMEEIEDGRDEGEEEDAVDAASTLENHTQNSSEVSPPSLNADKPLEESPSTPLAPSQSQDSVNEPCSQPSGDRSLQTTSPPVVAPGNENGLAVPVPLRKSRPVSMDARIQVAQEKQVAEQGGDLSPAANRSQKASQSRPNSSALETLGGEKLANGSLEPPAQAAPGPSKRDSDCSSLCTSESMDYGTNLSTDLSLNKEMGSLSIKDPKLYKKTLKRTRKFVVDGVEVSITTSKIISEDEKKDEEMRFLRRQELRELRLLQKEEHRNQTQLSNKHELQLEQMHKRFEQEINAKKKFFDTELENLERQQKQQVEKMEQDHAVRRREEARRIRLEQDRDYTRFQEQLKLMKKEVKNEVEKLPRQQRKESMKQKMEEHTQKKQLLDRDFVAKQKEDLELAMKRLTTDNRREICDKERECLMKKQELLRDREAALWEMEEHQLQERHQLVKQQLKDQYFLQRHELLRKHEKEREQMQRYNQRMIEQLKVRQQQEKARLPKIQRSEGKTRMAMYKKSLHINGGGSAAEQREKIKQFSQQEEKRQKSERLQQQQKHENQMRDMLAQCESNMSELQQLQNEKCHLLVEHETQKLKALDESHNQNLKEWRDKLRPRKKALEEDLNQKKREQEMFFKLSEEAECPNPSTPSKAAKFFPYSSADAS

| Compound | ΔTm [1] [°C] | ΔTm [2] [°C] | ΔTm [3] [°C] | ΔTm [4] [°C] | ΔTm [5] [°C] | ΔTm [6] [°C] | ΔTm [7] [°C] | ΔTm [8] [°C] | ΔTm [9] [°C] | ΔTm [10] [°C] | ΔTm [11] [°C] | ΔTm [12] [°C] | ΔTm [13] [°C] | ΔTm [14] [°C] | ΔTm [15] [°C] | ΔTm [16] [°C] | ΔTm [17] [°C] | ΔTm [18] [°C] |
| --- | --- | --- | --- | --- | --- | --- | --- | --- | --- | --- | --- | --- | --- | --- | --- | --- | --- | --- |
| CC(=O)O/N=C1/C(=C2/C(=O)Nc3cc(Br)ccc32)Nc2ccccc21 [6-BROMOINDIRUBIN-3'-ACETOXIME] | 0 | 1.1 | 2.4 | -0.4 | -0.3 | 1.7 | 2.8 | -0.3 | 1.9 | 2.1 | 4.5 | 0.9 | 0.7 | 0.8 | 1.1 | 0.3 | 4.6 | 2.5 |
| C[C@@H]1C[C@H]2O[C@@H]2/C=C\C=C\C(=O)Cc2c(Cl)c(O)cc(O)c2C(=O)O1 [RADICICOL] | -0.4 | 0.5 | 0 | -0.2 | 0 | 0.3 | -0.5 | 0.2 | 0.2 | 0.4 | 0.9 | 0 | -0.6 | 0.2 | -0.6 | 0.3 | -0.1 | -0.2 |
| N=C(N)NCCNS(=O)(=O)c1cccc2cnccc12 | 0.7 | 0.8 | 0 | -0.3 | 0.7 | 0.3 | 0 | 0.6 | 0.5 | 0.3 | 0.6 | 0.3 | 0.2 | -0.3 | -0.4 | 0 | -0.3 | -0.3 |
| C[S+]([O-])c1ccc(CSc2nc(-c3ccc(F)cc3)c(-c3ccncc3)[nH]2)cc1 (stereo unspecified) | 0.8 | -0.4 | -0.1 | 0.4 | -0.5 | 0.5 | 0.2 | 0.5 | 0.5 | 1.1 | 0.1 | -0.1 | -0.2 | -0.3 | 0.6 | 0 | 0 | 0.2 |
| CCOC(=O)c1cnc2oc3ccc(O)cc3c2c1-c1ccccc1 | 2.9 | 5.2 | 0.5 | -0.2 | 6.2 | 5.4 | 0.1 | -0.2 | 0.9 | 2.3 | 1 | 0.7 | -0.5 | -0.5 | 0 | 0.3 | 0.8 | 8.6 |
| COc1ccc(CNc2nc(N(CCO)CCO)nc3c2ncn3C(C)C)cc1 | 0.7 | 0.2 | 0.3 | 0.8 | 2.4 | 2.3 | -0.1 | 0.7 | 1 | 0.3 | 1.7 | 0 | 0.3 | 0 | 1.5 | 1.2 | 0.4 | 0.2 |
| C=CNC#N | -0.3 | 1 | 0.5 | -1.4 | 0.8 | 0 | 0.1 | -1.1 | 2.1 | 0.1 | 1 | 0.7 | -0.2 | -0.1 | 0.4 | 0.5 | 0.9 | -0.9 |
| CCN(CC)CCNC(=O)c1c(C)[nH]c(/C=C2\C(=O)Nc3ccc(Cl)cc32)c1C [SU-11652] | 8.1 | 4.7 | 6.2 | 3.8 | 6.6 | 6 | 2 | -0.4 | 5.1 | 7.5 | 6.8 | 5.7 | -0.8 | -0.7 | 7.4 | 4.4 | 3.3 | 9.7 |
| NC1=N/C(=C2/CCNC(=O)c3[nH]ccc32)C(=O)N1 [DEBROMOHYMENIALDISINE] | 1.7 | 2.4 | 0.3 | 1.3 | 6 | 0.4 | 0.6 | -0.4 | 1.1 | 0.6 | 6.4 | 0.1 | -0.5 | 0 | 1.7 | 0.1 | 0 | -0.2 |
| Cc1cc(C=C2C(=O)C=CC2=O)cc(C)c1O | 1.2 | 3.6 | 0.3 | 0.4 | -0.4 | 3.2 | -3.4 | 0.2 | 0.8 | 0.7 | -7.9 | 1.2 | -0.4 | -0.4 | 0.4 | -2.6 | -0.1 | -7.1 |
| Nc1n[nH]c2nc3ccccc3nc12 [QUINOXALINE1] | 1.6 | 1.3 | 0.4 | 0.7 | 1.6 | 1.1 | 0.6 | 0.5 | 1.2 | 2 | 0.9 | 0.7 | -0.3 | 0.5 | 1.3 | 0.6 | 0.3 | 2.2 |
| Brc1c(Br)c(Br)c2[nH]nnc2c1Br [TETRABROMOBENZOTRIAZOLE] | 0 | 4.9 | 0.6 | 1.2 | 3.6 | 1.1 | 0.3 | -0.3 | -0.1 | 1.2 | 1.7 | 1.2 | 0.6 | -4.4 | 0.7 | -0.1 | 0.4 | 0.7 |
